“And” between values parts separate entries of the source, which are not always exact repeats. Identical values can stand only once. ± gives the expanded uncertainty stated by the source.
Legend:
[1] = Molar enthalpy of transition or fusion; settings: Crystal; DSC
[2] = for vapor or sublimation pressure: Liquid, Rate of evaporation; for Normal melting temperature: Crystal, DTA
[3] = molar heat capacity at constant pressure; settings: 298.15 K; 101.33 kPa; Crystal; Small sample (50 mg) DSC

SMILES: NC(=O)c1ccccc1[N+](=O)[O-] [2-nitrobenzamide]
- Molar enthalpy of transition or fusion [1]: 6.63 ± 0.146 kcal/mol
- vapor or sublimation pressure ([2]; 485.02 K): 0.5592 ± 0.071 kPa
- vapor or sublimation pressure ([2]; 485.04 K): 0.5538 ± 0.072 kPa
- vapor or sublimation pressure ([2]; 485.08 K): 0.5802 ± 0.068 kPa
- vapor or sublimation pressure ([2]; 490.02 K): 0.6682 ± 0.086 kPa
- vapor or sublimation pressure ([2]; 490.06 K): 0.6975 ± 0.088 kPa
- vapor or sublimation pressure ([2]; 490.07 K): 0.6914 ± 0.088 kPa
- vapor or sublimation pressure ([2]; 495 K): 0.8483 ± 0.11 kPa
- vapor or sublimation pressure ([2]; 495.01 K): 0.8342 ± 0.11 kPa
- vapor or sublimation pressure ([2]; 495.05 K): 0.8126 ± 0.1 kPa
- vapor or sublimation pressure ([2]; 500.01 K): 1.016 ± 0.13 kPa
- vapor or sublimation pressure ([2]; 500.05 K): 0.9934 ± 0.13 kPa
- vapor or sublimation pressure ([2]; 500.08 K): 1.036 ± 0.13 kPa
- vapor or sublimation pressure ([2]; 505 K): 1.234 ± 0.15 kPa
- vapor or sublimation pressure ([2]; 505.03 K): 1.212 ± 0.15 kPa
- vapor or sublimation pressure ([2]; 505.05 K): 1.264 ± 0.16 kPa
- vapor or sublimation pressure ([2]; 510.02 K): 1.487 ± 0.19 kPa
- vapor or sublimation pressure ([2]; 510.04 K): 1.531 ± 0.2 kPa
- vapor or sublimation pressure ([2]; 510.07 K): 1.503 ± 0.19 kPa
- vapor or sublimation pressure ([2]; 515.02 K): 1.877 ± 0.24 kPa
- vapor or sublimation pressure ([2]; 515.05 K): 1.829 ± 0.23 kPa
- vapor or sublimation pressure ([2]; 515.08 K): 1.822 ± 0.23 kPa
- vapor or sublimation pressure ([2]; 520.02 K): 2.233 ± 0.28 kPa
- vapor or sublimation pressure ([2]; 520.05 K): 2.227 ± 0.28 kPa
- vapor or sublimation pressure ([2]; 520.07 K): 2.203 ± 0.28 kPa
- vapor or sublimation pressure ([2]; 525.01 K): 2.884 ± 0.36 kPa and 2.697 ± 0.35 kPa
- vapor or sublimation pressure ([2]; 525.06 K): 2.718 ± 0.35 kPa
- vapor or sublimation pressure ([2]; 530.02 K): 3.274 ± 0.41 kPa
- vapor or sublimation pressure ([2]; 530.03 K): 3.315 ± 0.41 kPa
- vapor or sublimation pressure ([2]; 530.07 K): 3.29 ± 0.41 kPa
- vapor or sublimation pressure ([2]; 535.02 K): 3.942 ± 0.47 kPa
- vapor or sublimation pressure ([2]; 535.03 K): 3.951 ± 0.48 kPa
- vapor or sublimation pressure ([2]; 535.06 K): 3.957 ± 0.48 kPa
- Normal melting temperature [2]: 173.80 ± 0.4 °C
- molar heat capacity at constant pressure [3]: 220.96 ± 10 J/K/mol

SMILES: NC(=O)c1ccc([N+](=O)[O-])cc1 [p-nitrobenzamide]
- Molar enthalpy of transition or fusion [1]: 7.19 ± 0.158 kcal/mol
- vapor or sublimation pressure ([2]; 485.02 K): 0.6396 ± 0.1 kPa and 0.6809 ± 0.094 kPa
- vapor or sublimation pressure ([2]; 485.04 K): 0.5788 ± 0.12 kPa
- vapor or sublimation pressure ([2]; 485.1 K): 0.6701 ± 0.097 kPa
- vapor or sublimation pressure ([2]; 490.01 K): 0.8437 ± 0.11 kPa
- vapor or sublimation pressure ([2]; 490.03 K): 0.8038 ± 0.11 kPa
- vapor or sublimation pressure ([2]; 490.07 K): 0.7398 ± 0.1 kPa
- vapor or sublimation pressure ([2]; 490.08 K): 0.7145 ± 0.1 kPa
- vapor or sublimation pressure ([2]; 495.01 K): 1.021 ± 0.12 kPa and 0.9548 ± 0.12 kPa
- vapor or sublimation pressure ([2]; 495.05 K): 0.9568 ± 0.12 kPa
- vapor or sublimation pressure ([2]; 495.06 K): 0.871 ± 0.11 kPa
- vapor or sublimation pressure ([2]; 500.01 K): 1.06 ± 0.13 kPa
- vapor or sublimation pressure ([2]; 500.03 K): 1.229 ± 0.15 kPa
- vapor or sublimation pressure ([2]; 500.04 K): 1.142 ± 0.14 kPa
- vapor or sublimation pressure ([2]; 500.06 K): 1.154 ± 0.14 kPa
- vapor or sublimation pressure ([2]; 505 K): 1.286 ± 0.17 kPa
- vapor or sublimation pressure ([2]; 505.03 K): 1.474 ± 0.18 kPa
- vapor or sublimation pressure ([2]; 505.05 K): 1.352 ± 0.17 kPa
- vapor or sublimation pressure ([2]; 505.06 K): 1.416 ± 0.18 kPa
- vapor or sublimation pressure ([2]; 510 K): 1.671 ± 0.22 kPa
- vapor or sublimation pressure ([2]; 510.02 K): 1.683 ± 0.22 kPa
- vapor or sublimation pressure ([2]; 510.04 K): 1.565 ± 0.21 kPa
- vapor or sublimation pressure ([2]; 510.06 K): 1.777 ± 0.23 kPa
- vapor or sublimation pressure ([2]; 515.01 K): 2.113 ± 0.25 kPa and 2.01 ± 0.24 kPa
- vapor or sublimation pressure ([2]; 515.04 K): 2.03 ± 0.24 kPa
- vapor or sublimation pressure ([2]; 515.06 K): 1.895 ± 0.23 kPa
- vapor or sublimation pressure ([2]; 520.02 K): 2.452 ± 0.33 kPa
- vapor or sublimation pressure ([2]; 520.04 K): 2.289 ± 0.32 kPa
- vapor or sublimation pressure ([2]; 520.06 K): 2.527 ± 0.34 kPa
- vapor or sublimation pressure ([2]; 520.08 K): 2.386 ± 0.33 kPa
- vapor or sublimation pressure ([2]; 525.02 K): 3.001 ± 0.35 kPa
- vapor or sublimation pressure ([2]; 525.03 K): 2.837 ± 0.34 kPa
- vapor or sublimation pressure ([2]; 525.05 K): 2.926 ± 0.35 kPa
- vapor or sublimation pressure ([2]; 525.08 K): 2.758 ± 0.33 kPa
- vapor or sublimation pressure ([2]; 530.01 K): 3.298 ± 0.41 kPa
- vapor or sublimation pressure ([2]; 530.03 K): 3.568 ± 0.43 kPa
- vapor or sublimation pressure ([2]; 530.05 K): 3.382 ± 0.41 kPa
- vapor or sublimation pressure ([2]; 530.06 K): 3.455 ± 0.42 kPa
- vapor or sublimation pressure ([2]; 535.02 K): 3.943 ± 0.44 kPa
- vapor or sublimation pressure ([2]; 535.04 K): 4.206 ± 0.52 kPa
- vapor or sublimation pressure ([2]; 535.06 K): 4.019 ± 0.46 kPa
- vapor or sublimation pressure ([2]; 535.07 K): 4.152 ± 0.5 kPa
- Normal melting temperature [2]: 200.33 ± 0.62 °C
- molar heat capacity at constant pressure [3]: 212.65 ± 8.3 J/K/mol

SMILES: c1ccc2c(c1)ccc1ccccc12 [phenanthrene]
- vapor or sublimation pressure ([2]; 400 K): 0.1505 ± 0.019 kPa [middle of 4 runs]
- vapor or sublimation pressure ([2]; 405 K): 0.18 ± 0.023 kPa [middle of 4 runs]
- vapor or sublimation pressure ([2]; 410 K): 0.2218 ± 0.029 kPa [middle of 4 runs]
- vapor or sublimation pressure ([2]; 415 K): 0.2759 ± 0.036 kPa [middle of 4 runs]
- vapor or sublimation pressure ([2]; 420 K): 0.3417 ± 0.045 kPa [middle of 4 runs]
- vapor or sublimation pressure ([2]; 425 K): 0.427 ± 0.056 kPa [middle of 4 runs]
- vapor or sublimation pressure ([2]; 430 K): 0.5304 ± 0.07 kPa [middle of 4 runs]
- vapor or sublimation pressure ([2]; 435 K): 0.6576 ± 0.086 kPa [middle of 4 runs]
- vapor or sublimation pressure ([2]; 440 K): 0.8141 ± 0.11 kPa [middle of 4 runs]
- vapor or sublimation pressure ([2]; 445 K): 1.004 ± 0.13 kPa [middle of 4 runs]
- vapor or sublimation pressure ([2]; 450 K): 1.235 ± 0.16 kPa [middle of 4 runs]
- vapor or sublimation pressure ([2]; 455 K): 1.516 ± 0.19 kPa [middle of 4 runs]
- vapor or sublimation pressure ([2]; 460 K): 1.844 ± 0.23 kPa [middle of 4 runs]
- vapor or sublimation pressure ([2]; 465 K): 2.233 ± 0.28 kPa [middle of 4 runs]
- vapor or sublimation pressure ([2]; 470 K): 2.697 ± 0.33 kPa [middle of 4 runs]
- vapor or sublimation pressure ([2]; 475 K): 3.245 ± 0.4 kPa [middle of 4 runs]
- vapor or sublimation pressure ([2]; 480 K): 3.773 ± 0.45 kPa and 3.874 ± 0.48 kPa and 3.819 ± 0.47 kPa

SMILES: NC(=O)c1cccc([N+](=O)[O-])c1 [3-nitrobenzamide]
- Molar enthalpy of transition or fusion [1]: 5.87 ± 0.134 kcal/mol
- vapor or sublimation pressure ([2]; 485 K): 0.7222 ± 0.096 kPa
- vapor or sublimation pressure ([2]; 485.02 K): 0.7094 ± 0.099 kPa
- vapor or sublimation pressure ([2]; 485.06 K): 0.6868 ± 0.1 kPa
- vapor or sublimation pressure ([2]; 490.01 K): 0.8798 ± 0.12 kPa
- vapor or sublimation pressure ([2]; 490.02 K): 0.868 ± 0.12 kPa
- vapor or sublimation pressure ([2]; 490.06 K): 0.84 ± 0.11 kPa
- vapor or sublimation pressure ([2]; 495.01 K): 1.068 ± 0.14 kPa
- vapor or sublimation pressure ([2]; 495.02 K): 1.057 ± 0.14 kPa
- vapor or sublimation pressure ([2]; 495.05 K): 1.021 ± 0.14 kPa
- vapor or sublimation pressure ([2]; 500 K): 1.286 ± 0.16 kPa
- vapor or sublimation pressure ([2]; 500.01 K): 1.284 ± 0.16 kPa
- vapor or sublimation pressure ([2]; 500.04 K): 1.246 ± 0.16 kPa
- vapor or sublimation pressure ([2]; 505.03 K): 1.495 ± 0.19 kPa
- vapor or sublimation pressure ([2]; 505.07 K): 1.556 ± 0.19 kPa
- vapor or sublimation pressure ([2]; 505.08 K): 1.557 ± 0.19 kPa
- vapor or sublimation pressure ([2]; 510 K): 1.794 ± 0.22 kPa
- vapor or sublimation pressure ([2]; 510.04 K): 1.867 ± 0.23 kPa
- vapor or sublimation pressure ([2]; 510.06 K): 1.872 ± 0.23 kPa
- vapor or sublimation pressure ([2]; 515.02 K): 2.228 ± 0.26 kPa
- vapor or sublimation pressure ([2]; 515.03 K): 2.226 ± 0.26 kPa
- vapor or sublimation pressure ([2]; 515.06 K): 2.146 ± 0.25 kPa
- vapor or sublimation pressure ([2]; 520.02 K): 2.545 ± 0.32 kPa
- vapor or sublimation pressure ([2]; 520.06 K): 2.654 ± 0.33 kPa
- vapor or sublimation pressure ([2]; 520.07 K): 2.633 ± 0.33 kPa
- vapor or sublimation pressure ([2]; 525.02 K): 3.119 ± 0.36 kPa
- vapor or sublimation pressure ([2]; 525.03 K): 3.091 ± 0.36 kPa
- vapor or sublimation pressure ([2]; 525.06 K): 3.009 ± 0.35 kPa
- vapor or sublimation pressure ([2]; 530 K): 3.525 ± 0.42 kPa
- vapor or sublimation pressure ([2]; 530.04 K): 3.638 ± 0.43 kPa
- vapor or sublimation pressure ([2]; 530.06 K): 3.596 ± 0.43 kPa
- vapor or sublimation pressure ([2]; 535.01 K): 4.145 ± 0.47 kPa
- vapor or sublimation pressure ([2]; 535.03 K): 4.119 ± 0.46 kPa
- vapor or sublimation pressure ([2]; 535.06 K): 4.215 ± 0.49 kPa
- Normal melting temperature [2]: 141.51 ± 0.42 °C
- molar heat capacity at constant pressure [3]: 237.57 ± 10 J/K/mol
